In patent US20250051327A1, “MALT-1 MODULATORS” (EXSCIENTIA AI LIMITED, priority 2020, published 2025) one finds IC50 data, which are given here for 17 compounds.

For experiment [1], the target named is Recombinant human MALT-1 (amino acids 340-824) (Homo sapiens (Human), UniProt Q9UDY8). In words: MALT-1 inhibition assay (fluorogenic substrate Ac-LRSR-Rh110-DP). In kind it is biochemical. The conditions noted are these: recombinant human MALT-1, substrate Ac-LRSR-Rh110-DP. The gist of the method:
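MALT-1 at 3 nM final was reacted with 10 μM Ac-LRSR-Rh110-DP, with substrate addition starting the reaction. Incubation ran 60 minutes at 25° C in the dark. Percent inhibition from fluorescence across doses was fitted to a 4-parameter logistic to give IC50.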

The test system of experiment [2] is IL-2 secretion by human effector memory T cells (TEM). The experiment is described as follows: Effector memory T cells IL-2 release assay. The experiment is classed as cell-based. The conditions noted are these: T-cell; human CD4+ effector memory T cells, CD3/CD28 bead stimulation, 24 h; read-out: CD4TC IL2 IC50. The gist of the method: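 Human CD4+ effector memory T cells from healthy-donor buffy coats were stimulated with anti-CD3/CD28 Dynabeads and exposed to 10 semi-log compound doses (0.1% DMSO) for 24 h at 37 °C. Supernatant IL-2 was measured by HTRF, and IC50 came from a 4-parameter logistic fit to maximal IL-2. Viability was checked by flow cytometry.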

Each structure is given as a SMILES string.

Recombinant human MALT-1 (amino acids 340-824), sequence (Q9UDY8 340-824): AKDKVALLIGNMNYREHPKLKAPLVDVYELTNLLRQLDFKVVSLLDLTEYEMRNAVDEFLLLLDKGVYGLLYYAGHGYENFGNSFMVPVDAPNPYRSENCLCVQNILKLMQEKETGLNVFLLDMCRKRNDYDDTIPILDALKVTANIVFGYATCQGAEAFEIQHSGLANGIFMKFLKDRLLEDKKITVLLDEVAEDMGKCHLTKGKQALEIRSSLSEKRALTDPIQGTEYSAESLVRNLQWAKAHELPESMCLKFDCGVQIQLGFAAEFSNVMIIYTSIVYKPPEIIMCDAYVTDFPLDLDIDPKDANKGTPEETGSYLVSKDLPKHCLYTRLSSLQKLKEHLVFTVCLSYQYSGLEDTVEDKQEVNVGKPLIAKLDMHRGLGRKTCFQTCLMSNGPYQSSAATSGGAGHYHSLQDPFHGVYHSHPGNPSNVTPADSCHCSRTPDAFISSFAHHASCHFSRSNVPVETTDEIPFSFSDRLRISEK

The IC50 is the concentration needed to halve the response being measured. Take `CN(C(=O)[C@H]1CC[S@@](=N)(=O)CC1)[C@@H](c1ccc(N2CCC3(CC3)c3c2cnc2cc(Cl)nn32)cc1)C(F)(F)F` [CPD0072772, (1rel-s,4rel-s)-N-[(1S)-1-(4-{4′-chloro-2′,3′,7′, 10′-tetraazaspiro[cyclopropane-1,13′-tricyclo[7.4.0.0^2,6]tridecane]-1′(9′),3′,5′,7′-tetraen-10′-yl}phenyl)-2,2,2-trifluoroethyl]-1-imino-N-methyl-1-oxo-1λ^6-thiane-4-carboxamide]: the IC50 in experiment [1] and in experiment [2] was 27 nM throughout.

As for `CN(C(=O)[C@H]1CCC(=O)NC1)[C@@H](c1ccc(N2CCCc3c2cnc2cc(Cl)nn32)cc1)C(F)(F)F` (relative stereo) [CPD0073569, (3rel-S)-N-[(1S)-1-(4-{4-chloro-2,3,7,10-tetraazatricyclo[7.4.0.0^2,6]trideca-1(9),3,5,7-tetraen-10-yl}phenyl)-2,2,2-trifluoroethyl]-N-methyl-6-oxopiperidine-3-carboxamide], the values for the IC50 in experiment [1] and in experiment [2] were 47 nM and 140 nM, respectively.

For `CN(C(=O)[C@@H]1CNC(=O)C1)[C@@H](c1ccc(N2CCCc3c2cnc2cc(Cl)nn32)cc1)C(F)(F)F` (stereo in doubt) [CPD0073565, (3rel-S)—N-[(1S)-1-(4-{4-chloro-2,3,7,10-tetraazatricyclo[7.4.0.0^2,6]trideca-1(9),3,5,7-tetraen-10-yl}phenyl)-2,2,2-trifluoroethyl]-N-methyl-5-oxopyrrolidine-3-carboxamide], the IC50 came to 43 nM in experiment [1] and 101 nM in experiment [2].

For `CN(C(=O)[C@@H]1CCS(=O)(=O)C1)[C@@H](c1ccc(N2CCCc3c2cnc2cc(Cl)nn32)cc1)C(F)(F)F` (relative stereo) [CPD0022135, (3rel-S)-N-[(1S)-1-(4-{4-chloro-2,3,7,10-tetraazatricyclo[7.4.0.0^2,6]trideca-1(9),3,5,7-tetraen-10-yl}phenyl)-2,2,2-trifluoroethyl]-N-methyl-1,1-dioxo-1λ^6-thiolane-3-carboxamide], the IC50 in experiment [1] stood at 84 nM; in experiment [2], 95 nM.

Take `C[C@@H]1CCN(c2ccc([C@H](N(C)C(=O)[C@H]3CC[S@@](=N)(=O)CC3)C(F)(F)F)cc2)c2cnc3cc(Cl)nn3c21` (relative stereo) [CPD0073192, (1rel-s,4rel-s)-N-[(1S)-1-{4-[(13rel-R)-4-chloro-13-methyl-2,3,7,10-tetraazatricyclo[7.4.0.0^2,6]trideca-1(9),3,5,7-tetraen-10-yl]phenyl}-2,2,2-trifluoroethyl]-1-imino-N-methyl-1-oxo-1λ^6-thiane-4-carboxamide]: the IC50 came out at 25 nM in experiment [1] and 80 nM in experiment [2].

Take `CN(C(=O)[C@H]1CNC(=O)O1)[C@@H](c1ccc(N2CCCc3c2cnc2cc(Cl)nn32)cc1)C(F)(F)F` (single isomer, unassigned) [CPD0075576]: the IC50 in experiment [1] turned out to be 46 nM; in experiment [2], 57 nM.

Turning to `COc1ccc2ncc(Nc3ccc([C@H](N(C)C(=O)[C@H]4CC[S@@](=N)(=O)CC4)C(F)(F)F)cc3)c([C@@H](C)OC)c2n1` [CPD0075564], the IC50 is 89 nM in experiment [1] and 175 nM in experiment [2].

Turning to `Cc1cc(N2CCCc3c2cnc2cc(Cl)nn32)ccc1[C@H](N(C)C(=O)C1CCS(=O)(=O)CC1)C(F)(F)F` [CPD0072808, N-[(1S)-1-(4-{4-chloro-2,3,7,10-tetraazatricyclo[7.4.0.0^2,6]trideca-1(9),3,5,7-tetraen-10-yl}-2-methylphenyl)-2,2,2-trifluoroethyl]-N-methyl-1,1-dioxo-1λ^6-thiane-4-carboxamide], the IC50 in experiment [1] was 127 nM; in experiment [2], 237 nM.

Consider `CN1CC[C@H](C(=O)N(C)[C@@H](c2ccc(N3CCCc4c3cnc3cc(Cl)nn43)cc2)C(F)(F)F)CC1=O` (relative stereo) [CPD0073141, (4rel-S)-N-[(1S)-1-(4-{4-chloro-2,3,7,10-tetraazatricyclo[7.4.0.0^2,6]trideca-1(9),3,5,7-tetraen-10-yl}phenyl)-2,2,2-trifluoroethyl]-N,1-dimethyl-2-oxopiperidine-4-carboxamide], for which the IC50 was found to be 67 nM in experiment [1] and 197 nM in experiment [2].

In the case of `CO[C@@H](C)c1c(Nc2ccc(C(N(C)C(=O)C3CCS(=O)(=O)CC3)C(F)(F)F)cc2)cnn2cc(Cl)nc12` (stereo partly shown) [CPD0072849], the IC50 was 37 nM in experiment [1] and 55 nM in experiment [2].

In the case of `CN(C(=O)[C@H]1C[C@@H](C(=O)O)C1)[C@@H](c1ccc(N2CCCc3c2cnc2cc(Cl)nn32)cc1)C(F)(F)F` [CPD0072934, (cis)-3-{[(1S)-1-(4-{4-chloro-2,3,7,10-tetraazatricyclo[7.4.0.0^2,6]trideca-1(9),3,5,7-tetraen-10-yl}phenyl)-2,2,2-trifluoroethyl](methyl)carbamoyl}cyclobutane-1-carboxylic acid], the IC50 in experiment [1] is 72 nM; in experiment [2], 422 nM.

As to `CN(C(=O)C1CCS(=O)(=O)CC1)[C@@H](c1ccc(N2CCCc3c2cnc2cc(Cl)nn32)cc1)C(F)F` [CPD0073041, N-[(1S)-1-(4-{4-chloro-2,3,7,10-tetraazatricyclo[7.4.0.0^2,6]trideca-1(9),3,5,7-tetraen-10-yl}phenyl)-2,2-difluoroethyl]-N-methyl-1,1-dioxo-1λ^6-thiane-4-carboxamide], the IC50 came to 432 nM in experiment [1] and 5780 nM in experiment [2].

`CC(=O)N1CCC(C(=O)N(C)[C@@H](c2ccc(N3CCCc4c3cnc3cc(Cl)nn43)cc2)C(F)(F)F)CC1` [CPD0073089, 1-acetyl-N-[(1S)-1-(4-{4-chloro-2,3,7,10-tetraazatricyclo[7.4.0.0^2,6]trideca-1(9),3,5,7-tetraen-10-yl}phenyl)-2,2,2-trifluoroethyl]-N-methylpiperidine-4-carboxamide]: the figures for the IC50 in experiment [1] and in experiment [2] were 46 nM and 79 nM, respectively.

Take `CN(C(=O)[C@@H]1CCC(=O)NC1)[C@@H](c1ccc(N2CCCc3c2cnc2cc(Cl)nn32)cc1)C(F)(F)F` (relative stereo) [CPD0073568, (3rel-R)-N-[(1S)-1-(4-{4-chloro-2,3,7,10-tetraazatricyclo[7.4.0.0^2,6]trideca-1(9),3,5,7-tetraen-10-yl}phenyl)-2,2,2-trifluoroethyl]-N-methyl-6-oxopiperidine-3-carboxamide]: the results for the IC50 in experiment [1] and in experiment [2] were 38 nM and 131 nM, respectively.

Regarding `CN(C(=O)[C@H]1CC[S@+]([O-])CC1)[C@@H](c1ccc(N2CCC3(CC3)c3c2cnc2cc(F)nn32)cc1)C(F)(F)F` (relative stereo) [CPD0072933, (1rel-r,4rel-r)-N-methyl-1-oxo-N-[(1S)-2,2,2-trifluoro-1-(4-{4′-fluoro-2′,3′,7′,10′-tetraazaspiro[cyclopropane-1,13′-tricyclo[7.4.0.0^2,6]tridecane]-1′(9′),3′,5′,7′-tetraen-10′-yl}phenyl)ethyl]-1λ^4-thiane-4-carboxamide], the IC50 worked out at 33 nM in experiment [1] and 58 nM in experiment [2].

For the compound `CN(C(=O)[C@H]1CC[S@@](=N)(=O)CC1)[C@@H](c1ccc(N2CCC(C)(C)c3c2cnc2cc(F)nn32)cc1)C(F)(F)F` (relative stereo) [CPD0072782], the results for the IC50 in experiment [1] and in experiment [2] were 53 nM and 95 nM, respectively.

Take `CN(C(=O)[C@H]1CCCS(=O)(=O)C1)[C@@H](c1ccc(N2CCCc3c2cnc2cc(Cl)nn32)cc1)C(F)(F)F` [CPD0021809]: the values for the IC50 in experiment [1] and in experiment [2] were 154 nM and 143 nM, respectively.
